Data as given in publication PMC6386719, “A glycyl radical enzyme enables hydrogen sulfide production by the human intestinal bacterium Bilophila wadsworthia” (Proceedings of the National Academy of Sciences of the …, 2019).

How the values were obtained:
[1] = biological target: T1, SarD (sulfoacetaldehyde reductase) (Bilophila wadsworthia, UniProt E5Y946); assay: NADH-dependent reduction to isethionate; format: biochemical
T1 construct: His-tagged, E. coli Rosetta 2 DE3

[2] = biological target: T2, AdhE (CoA-acylating aldehyde dehydrogenase) (Bilophila wadsworthia, UniProt E5Y379); assay: conversion to acetyl-CoA; format: biochemical; settings: CoASH
T2 construct: His-tagged, E. coli BL21
T2 sequence (E5Y379 1-484): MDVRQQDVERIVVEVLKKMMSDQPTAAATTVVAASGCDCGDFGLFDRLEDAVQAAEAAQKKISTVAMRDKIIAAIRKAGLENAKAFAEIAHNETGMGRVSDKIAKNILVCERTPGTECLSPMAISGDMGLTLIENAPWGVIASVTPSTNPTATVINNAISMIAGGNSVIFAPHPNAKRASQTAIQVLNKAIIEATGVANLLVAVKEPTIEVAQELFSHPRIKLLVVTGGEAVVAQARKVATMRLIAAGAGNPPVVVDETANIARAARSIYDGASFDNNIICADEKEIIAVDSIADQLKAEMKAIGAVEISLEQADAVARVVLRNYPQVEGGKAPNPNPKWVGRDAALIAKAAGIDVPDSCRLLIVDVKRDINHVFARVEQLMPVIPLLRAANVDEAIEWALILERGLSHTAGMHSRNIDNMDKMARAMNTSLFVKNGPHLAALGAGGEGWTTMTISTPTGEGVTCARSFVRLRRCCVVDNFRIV

[3] = biological target: T3, IslB (GRE-activating enzyme) (Bilophila wadsworthia, UniProt E5Y377); assay: glycyl radical installation on IslA, EPR; format: biochemical; settings: anoxic, acriflavine as photosensitizer
T3 construct: His-tagged, E. coli BL21(DE3) delta-iscR::kan, anoxic purification, reconstituted, reduced with dithionite

[4] = biological target: T4, Tpa (taurine:pyruvate aminotransferase) (Bilophila wadsworthia, UniProt E5Y945); assay: deamination to sulfoacetaldehyde; LC-MS; format: biochemical
T4 construct: His-tagged, E. coli Rosetta 2 DE3
T4 sequence (E5Y945 1-456): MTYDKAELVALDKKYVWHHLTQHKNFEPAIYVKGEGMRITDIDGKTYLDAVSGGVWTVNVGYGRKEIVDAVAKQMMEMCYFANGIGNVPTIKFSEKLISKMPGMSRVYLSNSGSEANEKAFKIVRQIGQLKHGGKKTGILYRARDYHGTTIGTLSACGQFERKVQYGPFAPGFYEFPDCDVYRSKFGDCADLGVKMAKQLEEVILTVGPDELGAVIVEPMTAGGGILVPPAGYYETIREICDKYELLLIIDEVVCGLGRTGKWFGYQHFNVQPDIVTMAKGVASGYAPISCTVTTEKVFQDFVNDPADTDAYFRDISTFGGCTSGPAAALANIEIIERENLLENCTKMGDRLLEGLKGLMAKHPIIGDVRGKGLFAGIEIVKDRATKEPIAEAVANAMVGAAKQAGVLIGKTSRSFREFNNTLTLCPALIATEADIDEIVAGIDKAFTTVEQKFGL

O=S(=O)(O)CCO = assay: purified protein; settings: anoxic; IslB-activated enzyme; NADH in coupling assay
[5] = substrate: O=S(=O)(O)CCO; assay: coupled spectrophotometric assay with yeast alcohol dehydrogenase; format: biochemical, Desulfovibrio desulfuricans; settings: anoxic; activated enzyme
Description: coupled spectrophotometric assay with yeast alcohol dehydrogenase on GRE IslA of D. desulfuricans DSM642 | selectivity for the cleavage of isethionate to sulfite and acetaldehyde, but a modest apparent kcat/Km

T1 sequence (E5Y946 whole entry): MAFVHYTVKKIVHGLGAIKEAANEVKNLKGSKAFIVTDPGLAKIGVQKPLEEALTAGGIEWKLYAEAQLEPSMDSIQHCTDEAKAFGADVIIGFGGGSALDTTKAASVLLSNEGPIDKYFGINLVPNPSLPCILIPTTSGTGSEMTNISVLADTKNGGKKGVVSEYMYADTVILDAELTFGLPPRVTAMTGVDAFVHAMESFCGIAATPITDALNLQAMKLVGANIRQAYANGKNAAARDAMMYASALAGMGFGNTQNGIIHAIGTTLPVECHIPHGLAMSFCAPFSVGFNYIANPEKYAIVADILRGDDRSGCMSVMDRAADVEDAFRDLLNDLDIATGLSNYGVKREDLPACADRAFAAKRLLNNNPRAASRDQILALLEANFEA
T3 sequence (E5Y377 whole entry): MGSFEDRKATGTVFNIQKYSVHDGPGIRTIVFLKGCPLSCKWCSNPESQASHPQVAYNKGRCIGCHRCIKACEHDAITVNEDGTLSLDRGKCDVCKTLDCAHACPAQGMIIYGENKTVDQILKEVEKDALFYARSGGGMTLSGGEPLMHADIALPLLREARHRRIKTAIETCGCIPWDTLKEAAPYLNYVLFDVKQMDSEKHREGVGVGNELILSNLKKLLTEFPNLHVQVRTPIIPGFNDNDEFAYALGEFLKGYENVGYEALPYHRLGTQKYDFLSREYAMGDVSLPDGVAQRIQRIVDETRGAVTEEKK
T3 sequence (E5Y378 whole entry, further chain): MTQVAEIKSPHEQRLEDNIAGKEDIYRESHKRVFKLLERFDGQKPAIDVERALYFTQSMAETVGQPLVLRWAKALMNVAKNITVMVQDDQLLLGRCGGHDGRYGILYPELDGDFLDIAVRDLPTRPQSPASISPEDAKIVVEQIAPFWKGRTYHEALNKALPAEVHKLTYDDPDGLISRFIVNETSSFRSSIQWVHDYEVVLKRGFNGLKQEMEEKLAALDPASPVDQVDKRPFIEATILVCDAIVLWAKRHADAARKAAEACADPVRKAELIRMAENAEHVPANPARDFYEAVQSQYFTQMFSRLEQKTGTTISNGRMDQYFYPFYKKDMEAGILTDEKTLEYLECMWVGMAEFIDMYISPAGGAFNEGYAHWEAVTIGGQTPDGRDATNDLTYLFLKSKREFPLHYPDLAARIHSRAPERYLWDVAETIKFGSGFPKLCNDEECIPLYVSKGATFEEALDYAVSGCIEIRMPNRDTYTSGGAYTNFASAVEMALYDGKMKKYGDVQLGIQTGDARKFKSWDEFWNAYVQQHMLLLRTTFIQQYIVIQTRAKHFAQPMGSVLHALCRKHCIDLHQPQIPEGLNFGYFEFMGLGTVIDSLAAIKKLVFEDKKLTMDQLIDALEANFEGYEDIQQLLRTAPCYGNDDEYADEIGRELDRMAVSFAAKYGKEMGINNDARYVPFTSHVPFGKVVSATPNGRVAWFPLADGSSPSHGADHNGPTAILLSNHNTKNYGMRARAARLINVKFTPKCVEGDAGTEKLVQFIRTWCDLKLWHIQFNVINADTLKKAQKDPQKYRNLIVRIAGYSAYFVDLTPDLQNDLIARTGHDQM

Molecule: NC(=O)C1=CN([C@@H]2O[C@H](COP(=O)(O)OP(=O)(O)OC[C@H]3O[C@@H](n4cnc5c(N)ncnc54)[C@H](O)[C@@H]3O)[C@@H](O)[C@H]2O)C=CC1 [NADH]
- NADH-dependent reduction to isethionate ([1]; sulfoacetaldehyde): SarD reduces sulfoacetaldehyde to isethionate in an NADH-dependent manner

Molecule: NC(=O)c1ccc[n+]([C@@H]2O[C@H](COP(=O)(O)OP(=O)(O)OC[C@H]3O[C@@H](n4cnc5c(N)ncnc54)[C@H](O)[C@@H]3O)[C@@H](O)[C@H]2O)c1 [NAD^+]
- conversion to acetyl-CoA ([2]; acetaldehyde): it preferred NAD^+ over NADP^+

Molecule: C[S+](CC[C@H](N)C(=O)O)C[C@H]1O[C@@H](n2cnc3c(N)ncnc32)[C@H](O)[C@@H]1O (some centres unmarked) [SAM]
- glycyl radical installation on IslA, EPR [3]: incubated with the purified GRE IslA in the presence of SAM and acriflavine

Molecule: CC=O [acetaldehyde]
- conversion to acetyl-CoA ([2]; NAD+): converted acetaldehyde to acetyl-CoA only in the presence of CoASH and NAD^+

Molecule: CC(=O)C(=O)O [pyruvate]
- deamination to sulfoacetaldehyde; LC-MS ([4]; taurine): Tpa catalyzes the deamination of taurine with pyruvate to generate sulfoacetaldehyde and alanine

Molecule: O=CCS(=O)(=O)O [sulfoacetaldehyde]
- NADH-dependent reduction to isethionate ([1]; NADH): SarD reduces sulfoacetaldehyde to isethionate in an NADH-dependent manner

Molecule: NCCS(=O)(=O)O [taurine, 2-aminoethanesulfonate]
- deamination to sulfoacetaldehyde; LC-MS ([4]; pyruvate): Tpa catalyzes the deamination of taurine with pyruvate to generate sulfoacetaldehyde and alanine

Molecule: IslA (isethionate sulfite-lyase) (Bilophila wadsworthia 3_1_6)
- Km (O=S(=O)(O)CCO): 8.1 ± 0.8 mM
- kcat (O=S(=O)(O)CCO): 14 ± 0.4 s⁻¹

B1: GRE IslA of D. desulfuricans DSM642 (Desulfovibrio desulfuricans ATCC 27774) (protein)
chain: MSMTTCECRSPQEQRLYDKIEGREDRFRKTHPRVFRLLERFEGQKPRIDIERALYFTQSMQETEGQPLVLRWAKALMHIARNMTVYVQEDQLLLGRAGCDGRYGILYPELDGDFLDIAVRDLPTRKTSPATITPEDARRVVEEIAPYWKGKTYHEALNAALPAEVHKLTYDDPEGLISRFIVNETSSFRSSIQWVHDYEKILKRGFNSIKKEAREKLAALDPLSAKDDREKRPFLEAVMIVCDAIVLWAKRHAVLAREMAEKESDPVRKAELLRMAENAEHVPGEPARDFWEACQSQWFTQMFSRIEQKTGTTISNGRMDQYFQPYYKQDREAGKITEAQAMELLECMWVGMAEFIDMYISPTGGAFNEGYAHWEAVTVGGQTPDGRDASNDLTYLILKSKREFPLHYPDLAARIHSRAPERYLWDVAETIKYGSGFPKLINDEEIVPLYVSKGATFEEALDYAVSGCTEARMPNRDTYTSGGAYINFAAAVEMVLRNGRMKKYGDQKLGVETGDPRSFTTWDQFWNAYVEQHLLFLKTAFTQQYIINKLRAEHFAQPMGSAMHDLCMKHCIDLHQEQIPEGINLGYFEYMGLGTVVDSLAAVKKLVFEEKKLSMDKLIAAIDADFEGYEDVRALLRSAPCYGNNDEYADAIGRDIDRISVEYGNKYSMSDLGIHNDVRYVPFTSHVPFGKVVSATPNGRTDGFPLSDGSSASHGADVNGPTAVLLSNCTTKNMGLRDRAARMLNIKFTPKCVEGEQGTEKLVSFIRTFCDLKLWHVQFNVVNKGTLVAAQKDPQKYRNLIVRIAGYSAYFVDLSPDLQNDLIARTEHDVM
notes: His-tagged, E. coli BL21
- Km [5]: 6.3 ± 0.5 mM
- kcat [5]: 12 ± 0.2 s⁻¹
